Measurements taken from article PMC6010070, “Antinociceptive potency of a fluorinated cyclopeptide Dmt-c[D-Lys-Phe-p-CF3-Phe-Asp]NH2” (Journal of Enzyme Inhibition and Medicinal Chemistry, 2018).
Bridge positions count the residues as written; N and C are the ends. Square brackets hold non-standard residues; d marks the D form. Peptide text beside a SMILES is read from it. Phe(4-CF3) = N[C@@H](Cc1ccc(C(F)(F)F)cc1)C(=O)O; Dmt = Cc1cc(O)cc(C)c1C[C@H](N)C(=O)O

What was measured:
[1] = Protocol: Parallel Artificial Membrane Permeability Assay (PAMPA) was performed using Multiscreen Filter Plate and Multiscreen Transport Receiver Plate (Merck Millipore, Warsaw, Poland). Tested, as well as reference compounds, were dissolved in 0.1 M PBS buffer containing 20% of ethanol, to the final concentration of 200 µM. A 300 µl aliquots of 0.1 M PBS solution (pH = 7.4) was dispensed into the wells of the […]. Then 1% n-dodecane solution of the brain polar lipid extract (Avanti Polar Lipids; Sigma Aldrich, Poznan, Poland) was prepared to investigate the blood–brain barrier (BBB) permeability. Aliquots of the obtained lipid solutions (5 µl) were dispensed on the membranes of wells of the donor plate and left to dry. […] A complete system, consisting of the receiver plate with inserted donor plate, was incubated at room temperature for 4 h, shaking at 40 g, to guarantee good solvent mixing.
The ability of the tested compounds to permeate the artificial membranes was classified according to the literature[33] as:
Artificial membrane permeability was assessed in the PAMPA assay and the permeability coefficient (Pe) was calculated from the following equation: Pe=C×-ln1-×Ca/Cr where C=Vd ×Va /(Vd+Va)×p×t
Membrane retention was analysed using mass balance between a compound left in the donor and acceptor compartments and calculated using the following equation: MB=Ca×Va+(Cd×Vd)/Cinitial×Vd where

Male CD-1 mice = test: Hot-plate test after i.c.v. administration; format: in vivo
Source text: Male CD-1 mice (Harlan, Italy) weighing 25–30 g were used to determine the anti-nociceptive activity of the cyclopeptides in the hot-plate test after i.c.v. injection. Animal studies and research protocols were approved by the Service for Biotechnology and Animal Welfare of the Istituto Superiore di Sanità and authorized by the Italian Ministry of Health, according to Legislative Decree 26/14 (protocol number: 198/2013-B, 14 August 2013), which implemented the European Directive 2010/63/EEC on laboratory animal protection. Animal welfare was routinely checked by veterinarians from the Service for Biotechnology and Animal Welfare.
The hot-plate test was performed as described earlier. The intracerebroventricular (i.c.v.) injections were performed in a volume of 10 µl/animal, in the left brain ventricle of manually immobilized mice with a Hamilton microsyringe (50 µl) connected to a needle (diameter 0.5 mm). Peptides were also administrated in mice intravenously (i.v.) in a volume of 1 ml/kg. All compounds used for i.c.v. and i.v. administration were dissolved in saline. A transparent plastic cylinder (14 cm diameter, 31 cm height) was used to confine the mouse on the heated (55 ± 0.5 °C) surface of the plate. The animals were placed on the hot plate 5 min after the i.c.v. injection of saline (control) or peptides and the latencies to paw licking, rearing and jumping were measured at 5, 10, 20, 30, 45, 60, 90, and 120 min after administration of a peptide. A cut-off time of 240 s was used to avoid tissue injury. The percentage of the maximal possible effect (%MPE) was calculated as: %MPE = (t1 − t0)/(t2 − t0) × 100, where t0: control latency, t1: test latency, and t2: cut-off time. The median antinociceptive dose (ED50) was calculated according to the method of Litchfield and Wilcox[36].

## Cc1cc(O)cc(C)c1C[C@H](N)C(=O)N[C@@H]1CCCCNC(=O)C[C@@H](C(N)=O)NC(=O)[C@H](Cc2ccc(C(F)(F)F)cc2)NC(=O)[C@H](Cc2ccccc2)NC1=O [Peptide F-81, Dmt-c[D-Lys-Phe-p-CF3-Phe-Asp]NH2] (H-[Dmt][dK]F[Phe(4-CF3)]D-NH2; lactam 2-5 (inferred))
[1]; PAMPA, brain polar lipid extract, 200 µM, 4 h, room temperature, pH 7.4
  BBB permeability Pe ± SD: ≤0.58
[1]; PAMPA-BBB, classified by Pe
  Classification (BBB permeation): Low permeation (Pe < 2.0 – low permeation)
[1]; PAMPA-BBB, membrane retention
  Mean (%) Mass balance ± SD: 95.75 ± 1.43%
Male CD-1 mice; F-81 10 ng/animal i.c.v., NTL 1 µg/animal
  Anti-nociceptive effect with co-administered naltrindole (delta antagonist): did not modify
Male CD-1 mice; F-81 10 ng/animal i.c.v., nor-BNI 5 µg/animal i.c.v.
  Anti-nociceptive effect with co-administered norbinaltorphimine (kappa antagonist): did not modify
Male CD-1 mice; F-81 10 ng/animal i.c.v., β-FNA 1 µg/animal
  Anti-nociceptive effect with co-administered β-funaltrexamine (mu antagonist): blocked
Male CD-1 mice; hot-plate test, i.c.v., from the ED50 values
  Anti-nociceptive potency relative to C-36: approximately threefold
Male CD-1 mice; hot-plate test, mice, i.c.v.
  ED50 (jumping response): 17.27 ng
